According to ChEMBL document CHEMBL5096183, “Contemporary advances of cyclic molecules proposed for inflammation” (Eur J Med Chem, 2021):

Experiments:
[1] = molecular target: T1, Prostaglandin G/H synthase 2 (Homo sapiens, UniProt P35354); test: Inhibition of human recombinant COX-2
T1 sequence (P35354 whole entry): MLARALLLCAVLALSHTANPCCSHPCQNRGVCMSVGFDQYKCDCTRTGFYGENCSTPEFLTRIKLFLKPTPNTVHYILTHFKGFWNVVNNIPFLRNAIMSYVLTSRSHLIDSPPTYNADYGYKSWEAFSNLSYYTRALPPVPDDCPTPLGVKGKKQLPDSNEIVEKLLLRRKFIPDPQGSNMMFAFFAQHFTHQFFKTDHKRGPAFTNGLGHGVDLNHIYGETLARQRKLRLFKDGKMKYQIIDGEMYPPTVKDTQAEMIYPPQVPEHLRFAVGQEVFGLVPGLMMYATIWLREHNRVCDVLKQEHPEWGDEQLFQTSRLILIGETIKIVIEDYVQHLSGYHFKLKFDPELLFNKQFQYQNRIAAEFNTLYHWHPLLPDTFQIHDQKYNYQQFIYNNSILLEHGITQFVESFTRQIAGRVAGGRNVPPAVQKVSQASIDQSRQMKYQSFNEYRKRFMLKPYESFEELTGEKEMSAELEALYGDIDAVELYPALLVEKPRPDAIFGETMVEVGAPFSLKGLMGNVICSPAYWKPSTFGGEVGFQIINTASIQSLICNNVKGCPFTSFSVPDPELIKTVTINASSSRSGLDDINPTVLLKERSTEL

[2] = molecular target: T2, Prostaglandin G/H synthase 1 (Ovis aries, UniProt P05979); test: Inhibition of ovine COX-1 preincubated for 10 mins followed by arachidonic acid addition for 2 mins
T2 sequence (P05979 whole entry): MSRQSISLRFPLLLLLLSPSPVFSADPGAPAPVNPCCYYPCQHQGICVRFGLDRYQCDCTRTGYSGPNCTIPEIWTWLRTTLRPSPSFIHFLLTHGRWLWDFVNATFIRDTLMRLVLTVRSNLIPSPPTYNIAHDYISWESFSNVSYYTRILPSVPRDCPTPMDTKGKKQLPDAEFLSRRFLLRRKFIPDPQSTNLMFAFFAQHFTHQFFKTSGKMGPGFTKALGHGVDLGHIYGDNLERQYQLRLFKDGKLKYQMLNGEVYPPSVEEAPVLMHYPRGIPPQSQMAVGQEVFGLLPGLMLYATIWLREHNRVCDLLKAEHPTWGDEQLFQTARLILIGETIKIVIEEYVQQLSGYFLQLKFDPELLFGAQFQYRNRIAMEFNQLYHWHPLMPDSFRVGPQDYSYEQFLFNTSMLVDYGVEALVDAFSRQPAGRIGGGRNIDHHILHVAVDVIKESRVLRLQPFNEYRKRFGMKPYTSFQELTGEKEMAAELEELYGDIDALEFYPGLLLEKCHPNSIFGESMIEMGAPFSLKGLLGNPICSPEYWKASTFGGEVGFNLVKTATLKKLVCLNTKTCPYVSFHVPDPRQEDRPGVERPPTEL

[3] = tested on: Rattus norvegicus; test: Anti-inflammatory activity against carrageenan-induced paw edema in rat
[4] = tested on: Rattus norvegicus; test: Anti-inflammatory activity against carrageenan-induced paw edema in rat relative to control; type: functional
[5] = tested on: Mus musculus; test: Anti-inflammatory activity against Carrageenan-induced paw edema in Swiss albino mouse assessed as change in paw volume at 10 mg/kg, PO measured for 3 to 6 hrs by plethysmometric analysis relative to control; type: functional; details: time 3-6 hrs
[6] = tested on: Rattus norvegicus; test: Anti-inflammatory activity against carrageenan-induced paw edema in PO dosed Wistar albino rat measured after 2 hrs; type: functional
[7] = tested on: Mus musculus; test: Analgesic activity in hot plate induced thermal pain Swiss albino mouse model assessed as change in latency at 10 mg/kg, po measured at 1 to 2 hrs relative to control; type: functional; details: time 1-2 hrs
[8] = tested on: Rattus norvegicus; test: Anti-inflammatory activity against formalin-induced foot paw edema in Wistar rat assessed as oedema inhibition at 10 mg/kg,po measured for 1 to 3 hrs by plethysmometric analysis relative to control; type: functional; details: time 1-3 hrs

With COc1ccc(/C=C/C(=O)c2cc(-n3cc(CN4C(=O)C(=O)c5ccccc54)nn3)ccc2O)cc1 the IC50 [1] was 0.037 µM.
Work on CC1=NN(c2cccc(Cl)c2)C(=O)/C1=C\c1cn(-c2nc(N3CCOCC3)nc(N3CCOCC3)n2)c2ccccc12 yielded an IC50 [2] of 20 µM.
Cc1ccc(-c2cc(C(F)(F)F)nn2-c2ccc(S(N)(=O)=O)cc2)cc1 [CELECOXIB] was tested, and the ED50 [3] was 34.1 mg/kg, the Activity [4] was 83.4% and the Activity [5] was 32%. The ED50 [6] was 32 µmol/kg.
For COc1ccc(/C=C/C(=O)c2cccc(N3C(=O)c4ccccc4C3=O)c2)cc1OC, the inhibition in vivo at 10 mg/kg [7] was 45.8% and the inhibition in vivo at 10 mg/kg [8] was 45%.
